Like-named read-outs stand apart in the source and are kept apart here.
Assays:
[1] = tested on: Cancer cell lines; assay: XTT viability assay, panel of cancer cell lines (means and ranges); format: cell-based; details: Homo sapiens
Source text: (§1) Cells and culture conditions. Primary astrocytes (Lonza, Walkersville, Md.; ABM™ Basal Media with AGM™ SingleQuots™ Supplement Pack), fibroblast (ATCC; Fibroblast Basal Medium (ATCC© PCS-201-030™) with Fibroblast Growth Kit-Serum-free (ATCC© PCS-201-040™)), airway epithelial cell (ATCC; Airway Epithelial Cell Basal Medium (ATCC© PCS-300-030™) with Bronchial Epithelial Cell Growth Kit (ATCC© PCS-300-040™)), renal proximal tubule (ATCC; Renal Epithelial Cell Basal Medium (ATCC© PCS-400-030™) with Renal Epithelial Cell Growth Kit (ATCC© PCS-400-040™)), prostate epithelial cell (Lonza; PrEGM™ BulletKit™) and mammary epithelial cell (Lonza; MEBM™ BulletKit™) were kept in a humidified incubator at 37° C. adjusted to 5% CO2. Prostate (PC3, LNCaP, DU-145), breast (MDA-MB-231, MDA-MB-453, SK-BR-3), head and neck (A253, Detroit 562, SCC-25), melanoma (SK-Mel-3, SK-Mel-1, RPMI-7951), pancreatic (CfPAC-1, BxPC3, SW1990), lung (A549, NCI-H1299, NCI-H1437) and liver (SNU-475, SK-HEP-1, SNU-387) cancer cell lines were obtained from ATCC and cultured in their respective media (prostate cells: RPMI-1640, MDA-MB-231: RPMI-1640, MDA-MB-453: Leibovitz's L-15, SK-BR-3: McCoy's 5a, A253: McCoy's 5a, Detroit 562: EMEM, SCC-25: DMEM, SK-Mel-3: McCoy's 5a, SK-Mel-1: EMEM, RPMI-7951: EMEM), CfPAC-1: IMDM, BxPC3: RPMI-1640, SW1990: Leibovitz's L-15), A549: F-12K, NCI-H1299: RPMI-1640, NCI-H1437: RPMI-1640, SNU-475: RPMI-1640, SK-HEP-1: EMEM, SNU-387: RPMI-1640. All media were supplemented with 10% (vol/vol) filtered fetal bovine serum (FBS, Invitrogen, Carlsbad, Calif.), 1% penicillin/streptomycin (Invitrogen) and maintained in a humidified incubator at 37° C. with 5% CO2 except for MDA-MB-453 and SW1990 grown at 37° C. without CO2 control. Wild type (ATCC) and C342T XPB knock-in cells (named T7115) of Human Embryonic Kidney 293T (HEK293T), HeLa (ATCC) were cultured in DMEM (GIBCO) with 10% (vol/vol) filtered fetal bovine serum (FBS, Invitrogen, Carlsbad, Calif.), 1% penicillin/streptomycin (Invitrogen).
(§2) XTT assay. Five thousand cells/well were plated on flat-bottom, transparent 96-well plate in a full growth media and incubated at appropriate culture conditions. Twenty four hours after seeding, cells were treated with indicated drugs and incubated for 47 hrs. Cell viability was measured using the R&D Systemsm TACS XTT Cell Proliferation/Viability Assay (R&D Systems, Minneapolis, Minn.).

[2] = tested on: Astrocyte; assay: XTT viability assay, primary astrocytes; format: cell-based; details: Homo sapiens, Primary normal cells
Source text: (§3) Cells and culture conditions. Primary astrocytes (Lonza, Walkersville, Md.; ABM™ Basal Media with AGM™ SingleQuots™ Supplement Pack), fibroblast (ATCC; Fibroblast Basal Medium (ATCC© PCS-201-030™) with Fibroblast Growth Kit-Serum-free (ATCC© PCS-201-040™)), airway epithelial cell (ATCC; Airway Epithelial Cell Basal Medium (ATCC© PCS-300-030™) with Bronchial Epithelial Cell Growth Kit (ATCC© PCS-300-040™)), renal proximal tubule (ATCC; Renal Epithelial Cell Basal Medium (ATCC© PCS-400-030™) with Renal Epithelial Cell Growth Kit (ATCC© PCS-400-040™)), prostate epithelial cell (Lonza; PrEGM™ BulletKit™) and mammary epithelial cell (Lonza; MEBM™ BulletKit™) were kept in a humidified incubator at 37° C. adjusted to 5% CO2. […]
(§4) XTT assay. […] Cell viability was measured using the R&D Systemsm TACS XTT Cell Proliferation/Viability Assay (R&D Systems, Minneapolis, Minn.).

[3] = tested on: PC3 prostate cancer cells expressing firefly luciferase; assay: Experimental metastatic prostate cancer mouse model (PC3/ML/fluc, tail vein); format: in vivo; details: for Median survival time: i.p. once daily for 30 days; for tumor cells by bioluminescence imaging: 1 mg/kg daily for 30 days
Description: In vivo tumor xenograft assay. Animal experiments were performed following the protocols approved by the Johns Hopkins University Animal Care and Use Committee. The experimental murine model of human prostate cancer metastasis used in this study was generated as previously described. (Bhatnagar et al. (2014) Cancer Res. 74:5772-81) Briefly, four-to six-week-old, male NOD/SCID/IL2R^γnull (NSG, purchased from Animal Resources Core, JHU) were injected with a million PC3/ML/fluc cells via tail vein. Tumor formation was confirmed by bioluminescence imaging (BLI) using the IVIS Spectrum Imaging System (Caliper Life Sciences, Hopkinton, Mass.) three weeks after injection and the mice were given indicated doses of drug once daily (intraperitoneal injection) for 30 days. Tumor progression was then monitored weekly by BLI and survival monitored concurrently.

[4] = tested on: RPMI-7951; assay: XTT viability assay, RPMI-7951; format: cell-based; details: Homo sapiens; Melanoma, RPMI-7951, XTT
Source text: as §3, §4

[5] = tested on: SK-Mel-1; assay: XTT viability assay, SK-Mel-1; format: cell-based; details: Homo sapiens; Melanoma, SK-Mel-1, XTT
Source text: as §3, §4

[6] = tested on: Fibroblast; assay: XTT viability assay, primary fibroblasts; format: cell-based; details: Homo sapiens, Primary normal cells
Source text: as §3, §4

[7] = tested on: NCI-H1299; assay: XTT viability assay, NCI-H1299; format: cell-based; details: Homo sapiens, Lung Cancer
Source text: as §3, §4

[8] = tested on: primary human cells; assay: XTT viability assay, panel of primary non-malignant cells (means and ranges); format: cell-based
Source text: as §1, §2

[9] = tested on: A549; assay: XTT viability assay, A549; format: cell-based; details: Homo sapiens, Lung Cancer
Source text: as §3, §4

[10] = tested on: Airway Epithelial cell; assay: XTT viability assay, airway epithelial cells; format: cell-based; details: Homo sapiens, Primary normal cells
Source text: as §3, §4

[11] = tested on: SNU-387; assay: XTT viability assay, SNU-387; format: cell-based; details: Homo sapiens; Liver Cancer, SNU-387, XTT
Source text: as §3, §4

[12] = tested on: DU-145; assay: XTT viability assay, DU-145; format: cell-based; details: Homo sapiens; Prostate Cancer, DU-145, XTT
Source text: as §3, §4

[13] = tested on: Renal Proximal Tubule; assay: XTT viability assay, renal proximal tubule cells; format: cell-based; details: Homo sapiens, Primary normal cells
Source text: as §3, §4

[14] = tested on: SCC-25; assay: XTT viability assay, SCC-25; format: cell-based; details: Homo sapiens; Head and Neck Cancer, SCC-25, XTT
Source text: as §3, §4

[15] = tested on: LNCaP; assay: XTT viability assay, LNCaP; format: cell-based; details: Homo sapiens, Prostate Cancer
Source text: as §3, §4

[16] = tested on: SW1990; assay: XTT viability assay, SW1990; format: cell-based; details: Homo sapiens, Pancreatic Cancer
Source text: as §3, §4

[17] = tested on: SK-HEP-1; assay: XTT viability assay, SK-HEP-1; format: cell-based; details: Homo sapiens, SK-HEP1; Liver Cancer, SK-HEP-1, XTT
Source text: as §3, §4

[18] = Cancer cell lines (n = 21), read-out: mean IC50 by cell type
[19] = Less sensitive lines (n = 13), IC50 ≥ 1 μM, read-out: mean IC50 by cell type
[20] = Sensitive lines (n = 8), IC50 < 1 μM, read-out: mean IC50 by cell type
[21] = 1 mg/kg, days after initiation of treatment
[22] = Non-malignant cells, read-out: mean IC50 by cell type
[23] = cell viability, panel of normal primary cells, read-out: range of IC50 values for primary cells

CC(C)[C@]12O[C@H]1[C@@H]1O[C@]13[C@]1(O[C@H]1C[C@H]1C4=C(CC[C@@]13C)C(=O)OC4)[C@@H]2OC(=O)CCCO[C@@H]1OC(CO)[C@@H](O)C(O)C1O (stereo in doubt) [Compound 1]
IC50 [1, 18]: 3.94 ± 3.26 µM
IC50 [1, 19]: 6.25 ± 3.68 µM
IC50 [1, 20]: 0.47 ± 0.06 µM
IC50 ([1]; with the exception of SNU-387 and NCI-H1299, read-out: range of IC50 values for cancer cell lines): 0.26 to 6.5 µM
IC50 [2]: 10.9 ± 9.66 µM
Median survival time ([3]; 0.25 mg/kg): 46 days
Median survival time ([3]; 0.5 mg/kg): 76 days
tumor cells by bioluminescence imaging [3]: undetectable levels of cancer cells two weeks after cessation of treatment
longest survival ([3]; 1 mg/kg treatment group, versus 26 days for untreated group): 86 days
Median survival time [3, 21]: 84 days
IC50 [4]: 5.95 ± 2.45 µM
IC50 [5]: 3.44 µM
IC50 [6]: 10.6 ± 1.22 µM
IC50 [7]: 11.5 ± 5.51 µM
IC50 [8, 22]: 6.8 ± 1.67 µM
IC50 [8, 23]: 4 to 10.9 µM
IC50 [9]: 2.72 ± 1.41 µM
IC50 [10]: 7.13 ± 2.84 µM
IC50 [11]: 24.4 ± 8.9 µM
IC50 [12]: 0.44 ± 0.19 µM
IC50 [13]: 5.94 ± 2.21 µM
IC50 [14]: 1.63 ± 0.78 µM
IC50 [15]: 0.45 ± 0.33 µM
IC50 [16]: 6.48 ± 2.79 µM
IC50 [17]: 5.9 ± 0.28 µM

CC(C)[C@]12O[C@H]1[C@@H]1O[C@]13[C@]1(O[C@H]1C[C@H]1C4=C(CC[C@@]13C)C(=O)OC4)[C@@H]2OC(=O)CCC(=O)O[C@@H]1OC(CO)[C@@H](O)C(O)C1O (stereo partly shown) [Compound 10]
IC50 [1, 18]: 2.42 ± 2 µM
IC50 [1, 19]: 3.7 ± 2.33 µM
IC50 [1, 20]: 0.49 µM
IC50 [2]: 5.31 ± 4.29 µM
tumor cells by bioluminescence imaging [3]: tumor cells were cleared by week 2 of treatment
Median survival time [3, 21]: 76 days
IC50 [4]: 2.67 ± 1.34 µM
IC50 [5]: 1.29 µM
IC50 [6]: 5.64 ± 1.28 µM
IC50 [7]: 6.4 ± 2.43 µM
IC50 [8, 22]: 4.16 ± 0.93 µM
IC50 [8, 23]: 1.37 to 5.6 µM
IC50 [9]: 1.7 ± 0.79 µM
IC50 [10]: 4.12 ± 1.39 µM
IC50 [11]: 15.5 ± 9.28 µM
IC50 [12]: 0.4 ± 0.13 µM
IC50 [13]: 4.83 ± 1.54 µM
IC50 [14]: 1.26 ± 0.99 µM
IC50 [15]: 0.56 ± 0.09 µM
IC50 [16]: 1.52 ± 0.33 µM
IC50 [17]: 3.38 ± 0.71 µM

Source: US20230134986A1, “GLUCOSE TRIPTOLIDE CONJUGATES AND USES THEREOF” (The Johns Hopkins University, priority 2020, published 2023)
